This is an account of results in patent US4939137A, “Ring-fused thienopyrimidinedione derivatives” (Ortho Pharmaceutical Corporation, priority 1989, dated 1990).

The structures appear in SMILES notation.

Assay [1] addresses alpha-1 adrenergic receptor. As to the kind of experiment: Brain Alpha-1 Radioreceptor Assay (3H-prazosin). The following applies: guinea pig brain membranes, 30 minutes, 30° C., read-out: RECEPTOR BINDING ALPHA-1 (IC50). The method, then: Membrane fragments were prepared from the brains of mature female guinea pigs after removal of the corpus striata. The alpha-1 adrenergic receptor sites were labeled with ^3 H-prazosin. Membrane fragments, ^3 H-prazosin and an unlabeled test compound were incubated for 30 minutes at 30° C. Compound bound to the receptor site was separated from the remaining unbound radioligand by vacuum filtration. Specific binding was determined by the difference between total counts bound and counts bound in the presence of 10-^5 M phentolamine.

Assay [2] has as its target T1, 5HT1A receptor (Rattus norvegicus, UniProt P19327).
T1 construct: Membrane fragments were prepared from the frontal cortex dissected from brains obtained from female rats; from tissue; host or cells: frontal cortex, female rats
T1 sequence (P19327 1-422): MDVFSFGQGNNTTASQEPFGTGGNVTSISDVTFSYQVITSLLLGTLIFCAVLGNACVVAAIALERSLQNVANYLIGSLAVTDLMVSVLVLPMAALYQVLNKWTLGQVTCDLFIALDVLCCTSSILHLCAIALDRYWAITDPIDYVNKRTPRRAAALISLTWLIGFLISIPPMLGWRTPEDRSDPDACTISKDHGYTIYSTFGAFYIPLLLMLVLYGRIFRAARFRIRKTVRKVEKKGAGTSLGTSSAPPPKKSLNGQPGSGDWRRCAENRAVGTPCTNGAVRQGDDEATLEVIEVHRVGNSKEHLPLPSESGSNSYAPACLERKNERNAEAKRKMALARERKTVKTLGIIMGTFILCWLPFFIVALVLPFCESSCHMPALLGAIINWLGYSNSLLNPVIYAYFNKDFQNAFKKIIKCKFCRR
Briefly: Brain Serotonin 5HT1A Radioreceptor Assay (3H-80H-DPAT). It is filed as binding. Particulars: for IC50: rat frontal cortex membranes, 10 minutes, 37° C., read-out: RECEPTOR BINDING 5HT-1A (IC50). The method, then:
Membrane fragments were prepared from the frontal cortex dissected from brains obtained from female rats (~150 g). The 5HT1A sites were labeled with ^3 H-80H-dipropylaminotetralin (^3 H-80H-DPAT). Membrane fragments, ^3 H-80H-DPAT and an unlabeled test compound were incubated for 10 minutes at 37° C. The tubes were then placed in an ice bath for an additional 10 minutes. Compound bound to the receptor site was separated from the remaining unbound compound by vacuum filtration.
The ability of a nonlabeled compound to compete with ^3 H-80H-DPAT for binding sites was a measure of the compound's affinity for the 5HT1A receptor. Specific binding was determined by the difference between total counts bound and counts bound in the presence of 10^-5 M serotonin.
Data are presented at the IC50, the concentration of nonlabeled compound required to displace 50% of the ^3 H-80H-DPAT specifically bound to 5HT1A binding sites.

For assay [3], the target named is T2, 5HT2 receptor (Rattus norvegicus, UniProt P14842).
T2 construct: Membrane fragments were prepared from the frontal cortex dissected from brains obtained from female rats; from tissue; host or cells: frontal cortex, female rats
Briefly: Brain Serotonin 5HT2 Radioreceptor Assay (3H-ketanserin). The assay is classed as binding. Particulars: rat frontal cortex membranes, 15 minutes, 37° C., read-out: RECEPTOR BINDING 5HT-2 (IC50). The method, then:
Membrane fragments were prepared from the frontal cortex dissected from brains obtained from female rats (~150 g). The 5HT2 sites were labeled with ^3 H-ketanserin. Membrane fragments, ^3 H-ketanserin and an unlabeled test compound were incubated for 15 minutes at 37° C. Compound bound to the receptor site was separated from the remaining unbound compound by vacuum filtration.
The ability of a nonlabeled compound to compete with ^3 H-ketanserin for binding sites was a measure of the compound's affinity for the 5HT2 receptor. Specific binding was determined by the difference between total counts bound and counts bound in the presence of 10^-6 M methysergide.
Data are presented as the IC50, the concentration of nonlabeled compound required to displace 50% of the ^3 H-ketanserin specifically bound to 5HT2 binding sites.

In assay [4] the test system is spontaneously hypertensive rats (SHR). Briefly: Antihypertensive Activity: Spontaneously Hypertensive Rat (SHR test). The following applies: Rattus norvegicus, p.o. or i.v., read-out: SHR TEST: change in blood pressure (delta % of control); for change in vivo at 5 mg/kg: dose 5 mpk. The assay is classed as in vivo, rat (male spontaneously hypertensive). The method, then: Mean arterial pressure and heart rate were monitored from directly cannulated animals. Compounds were administered p.o. or i.v. and blood pressure was recorded for various time intervals post dosing.
Blood pressure changes (expressed as change in control pressure and reported as delta % of control for each animal) were analyzed statistically using a one way analysis of variance with a Dunnett's test. P values less than 0.05 were considered significant.

Assay [5] has as its system alpha adrenergic receptor. Briefly: Alpha-1 Adrenergic Blockage: Inhibition of Phenylephrine-Induced Increases in Blood Pressure in the Anesthetized Dog. The following applies: dose 0.03 mpk, i.v., phenylephrine 10 μg/kg. The assay is classed as in vivo. An excerpt:
Dogs were anesthetized and bilaterally vagotomized. A femoral artery and vein were cannulated for detection of diastolic blood pressure and drug administration, respectively. Percent inhibition of alpha adrenergic receptor antagonism was quantified by determining dose-response (increase in diastolic pressure) relationship of phenylephrine before and after various doses of the antagonist.

T2 sequence (P14842 whole entry, the tested form may be a part): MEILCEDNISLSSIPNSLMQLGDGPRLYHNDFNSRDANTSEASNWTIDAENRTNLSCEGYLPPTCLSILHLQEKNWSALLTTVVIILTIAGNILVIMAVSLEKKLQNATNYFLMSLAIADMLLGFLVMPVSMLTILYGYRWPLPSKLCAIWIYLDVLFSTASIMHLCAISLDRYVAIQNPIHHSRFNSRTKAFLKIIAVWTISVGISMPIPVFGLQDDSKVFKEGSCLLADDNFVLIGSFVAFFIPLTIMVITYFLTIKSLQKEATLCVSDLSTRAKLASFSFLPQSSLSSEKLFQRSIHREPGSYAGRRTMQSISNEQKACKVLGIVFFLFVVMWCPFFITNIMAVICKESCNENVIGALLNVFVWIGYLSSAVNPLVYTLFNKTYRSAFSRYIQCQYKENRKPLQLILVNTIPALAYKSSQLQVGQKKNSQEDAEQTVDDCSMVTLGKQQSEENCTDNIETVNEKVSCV

As usually defined, the IC50 is the concentration at which inhibition is half-maximal. In the case of `COc1ccccc1N1CCN(CCn2c(=O)c3scc4c3n(c2=O)CCC4=O)CC1` [Example 14, 7.8-Dihydro-4-[2-[4-(2-methoxyphenyl)-piperazin-1-yl]ethyl]thieno[2,3,4-de]pyrido[1,2-c]pyrimidine-3,5,9-trione], the IC50 in assay [1] turned out to be 0.006 µM; in assay [2] it was 0.066 µM; in assay [3], 1.5 µM. For the same compound, the change in vivo at 5 mg/kg in assay [4] was -30%. As to `COc1ccccc1N1CCN(CCn2c(=O)c3csc4c3n(c2=O)CCC4OC(=O)C(C)C)CC1` (stereo not shown) [Example 33, 3,4,5,7,8,9-Hexahydro-9-(2-methylpropanoyloxy)-4-[2-[4-(2-methoxyphenyl)piperazin-1-yl]ethyl]thieno[4,3,2-de]pyrido[1,2-c]pyrimidine-3,5-dione], in assay [4], the change in vivo at 5 mg/kg was -32%.

Regarding `COc1ccccc1N1CCN(CCn2c(=O)c3c(C)sc4c3n(c2=O)CCC4=O)CC1` [Example 13, 3,4,5,7,8,9-Hexahydro-2-methyl-4-[2-[4-(2-methoxyphenyl)piperazin-1-yl]ethyl]thieno[4,3,2-de]pyrido[1,2-c]pyrimidine-3,5,9-trione], in assay [5], the “% INHIB OF PHENYLEPHRINE RESPONSE” value was determined as 88%. Still for that read-out and setting: then `O=C1CCn2c(=O)n(CCN3CCN(c4ccccc4Cl)CC3)c(=O)c3csc1c32` [Example 3, 4-[2-[4-(2-Chlorophenyl)piperazin-1-yl]ethyl]3,4,5,7,8,9-hexahydrothieno[4,3,2-de]pyrido[1,2-c]pyrimidine-3,5,9-trione], with 55%; and `CCCCCC(=O)OC1CCn2c(=O)n(CCN3CCN(c4ccccc4OC)CC3)c(=O)c3csc1c32` (stereo not shown) [Example 32, 3,4,5,7,8,9-Hexahydro-4-[2-[4-(2-methoxyphenyl)piperazin-1-yl]ethyl]-9-(hexanoyloxy)thieno[4,3,2-de]pyrido[1,2-c]pyrimidine-3,5-dione], with 90%. On to `COc1ccccc1N1CCN(CCn2c(=O)c3csc4c3n(c2=O)CCC4N)CC1` (stereo not shown) [Example 38, 9-Amino-3,4,5,7,8,9-hexahydro-4-[2-[4-(2-methoxyphenyl)piperazin-1-yl]ethyl]thieno[4,3,2-de]pyrido[1,2-c]pyrimidine-3,5-dione], for which the IC50 turned out to be 0.01 µM in assay [1], 0.05 µM in assay [2] and 0.8 µM in assay [3]. In assay [4] (dose 2.5 mpk), the change in vivo at 2.5 mg/kg was -30.1%. On to `O=C1CCn2c(=O)n(CCN3CCN(c4ccccc4)CC3)c(=O)c3csc1c32` [Example 4, 3,4,5,7,8,9-Hexahydro-4-[2-(4-phenylpiperazin-1-yl)ethyl]thieno[4,3,2-de]pyrido[1,2-c]pyrimidine-3,5,9-trione], for which the “% INHIB OF PHENYLEPHRINE RESPONSE” value in assay [5] came to 88%.

Consider `COc1ccc(C(=O)OC2CCn3c(=O)n(CCN4CCN(c5ccccc5OC)CC4)c(=O)c4csc2c43)cc1` (stereo not shown) [Example 36, 3,4,5,7,8,9-Hexahydro-9-(4-methoxy)benzoyloxy-4-[2-[4-(2-methoxyphenyl)piperazin-1-yl]ethyl]thieno[4,3,2-de]pyrido[1,2-c]pyrimidine-3,5-dione], for which, in assay [4], the change in vivo at 5 mg/kg was -14%.

`COc1ccccc1N1CCN(CCn2c(=O)c3csc4c3n(c2=O)CCC4OC(=O)C(C)(C)C)CC1` (stereo not shown) [Example 34, 3,4,5,7,8,9-Hexahydro-4-[2-[4-(2-methoxyphenyl)piperazin-1-yl]ethyl]-9-[(2,2-dimethyl)propanoyloxy]thieno[4,3,2-de]pyrido[1,2-c]pyrimidine-3,5-dione]: the change in vivo at 5 mg/kg in assay [4] was -26%.

Take `COc1ccccc1N1CCN(CCn2c(=O)c3csc4c3n(c2=O)CCC4OC(=O)c2ccc(Cl)cc2)CC1` (stereo not shown) [Example 37, 9-(4-Chlorobenzoyloxy)-3,4,5,7,8,9-hexahydro-4-[2-[4-(2-methoxyphenyl)piperazin-1-yl]ethyl]thieno[4,3,2-de]pyrido[1,2-c]pyrimidine-3,5-dione]: the change in vivo at 5 mg/kg in assay [4] is -30.2%.

Regarding `COc1cccc(N2CCN(CCn3c(=O)c4csc5c4n(c3=O)CCC5=O)CC2)c1` [Example 5, 3,4,5,7,8,9-Hexahydro-4-[2-[4-(3-methoxyphenyl)piperazin-1-yl]ethyl]thieno[4,3,2-de]pyrido[1,2-c]pyrimidine-3,5,9-trione], in assay [5], the “% INHIB OF PHENYLEPHRINE RESPONSE” value amounted to 41%. Consider `COc1ccccc1N1CCN(CCn2c(=O)c3csc4c3n(c2=O)CCCC4O)CC1` (stereo not shown) [Example 22, 10-Hydroxy-4,7,8,9-tetrahydro-4-[2-[4-(2-methoxyphenyl)piperazin-1-yl]ethyl]thieno[4,3,2-de]pyrimido[3,4-a]azepine-3,5-dione], for which the IC50 was 0.0004 µM in assay [1], 0.062 µM in assay [2] and 0.27 µM in assay [3]. As to `O=C1CCn2c(=O)n(CCN3CCN(c4ccc(F)cc4)CC3)c(=O)c3csc1c32` [Example 9, 3,4,5,7,8,9-Hexahydro-4-[2-[4-(4-fluorophenyl)piperazin-1-yl]ethyl]thieno[4,3,2-de]pyrido[1,2-c]pyrimidine-3,5,9-trione], the change in vivo at 5 mg/kg in assay [4] was -21.5%. Turning to `CON=C1CCn2c(=O)n(CCN3CCN(c4cccc(Cl)c4)CC3)c(=O)c3csc1c32` [Example 41, 4-[2-[4-(3-Chlorophenyl)piperazin-1-yl]ethyl]-3,4,5,7,8,9-hexahydro-9-methoxyiminothieno[4,3,2-de]pyrido[1,2-c]pyrimidine-3,5-dione], the IC50 in assay [1] was 40 µM; in assay [2] it was 1 µM; in assay [3], 1 µM.

For the compound `CCCC(=O)OC1CCn2c(=O)n(CCN3CCN(c4ccccc4OC)CC3)c(=O)c3csc1c32` (stereo not shown) [Example 31], the “% INHIB OF PHENYLEPHRINE RESPONSE” value in assay [5] is listed as 100%. As for `COc1ccc(N2CCN(CCn3c(=O)c4csc5c4n(c3=O)CCC5=O)CC2)cc1` [Example 8, 3,4,5,7,8,9-Hexahydro-4-[2-[4-(4-methoxyphenyl)piperazin-1-yl]ethyl]thieno[4,3,2-de]pyrido[1,2-c]pyrimidine-3,5,9-trione], the “% INHIB OF PHENYLEPHRINE RESPONSE” value in assay [5] was found to be 40%. On to `COc1ccccc1N1CCN(CCn2c(=O)c3csc4c3n(c2=O)CCCC4=O)CC1` [Example 15, 4,7,8,9-Tetrahydro-4-[2-[4-(2-methoxyphenyl)-piperazin-1-yl]ethyl]thieno[4,3,2-de]pyrimido[3,4-a]azepine-3,5,10-trione], for which the change in vivo at 5 mg/kg in assay [4] was -29.8%. Same read-out and setting: to `COc1ccccc1N1CCN(CCn2c(=O)c3c(C)sc4c3n(c2=O)CCC4O)CC1` (stereo not shown) [Example 23, 3,4,5,7,8,9-Hexahydro-9-hydroxy-4-[2-[4-(2-methoxyphenyl)piperazin-1-yl]ethyl]-2-methyl-thieno[4,3,2-de]pyrido[1,2-c]pyrimidine-3,5-dione] belongs -27.4%. `COc1ccccc1N1CCN(CCn2c(=O)c3csc4c3n(c2=O)CCC4NC(=O)c2ccccc2)CC1` (stereo not shown) [Example 40, 9-Benzoylamino-3,4,5,7,8,9-hexahydro-4-[2-[4-(2-methoxyphenyl)piperazin-1-yl]ethyl]thieno[4,3,2-de]pyrido[1,2-c]pyrimidine-3,5-dione]: the IC50 in assay [1] stood at 0.003 µM; in assay [3], 2.5 µM. The inhibition at 10 µM in assay [2] (@ 10^-5, rat frontal cortex membranes, read-out: RECEPTOR BINDING 5HT-1A, % @ 10^-5) amounted to 45%.
